For experiment [1], the target named is NAMPT (human, recombinant, C-terminally His-tagged) (Homo sapiens, UniProt P43490). The experiment can be described thus: Time-Resolved Fluorescence Resonance Energy Transfer (TR-FRET) Binding Assay of NAMPT. To be noted: absence of substrates; 6.8 nM NAMPT, 200 nM probe, equilibrated 3 hours. A digest of the protocol:
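Displacement of 200 nM Oregon Green-labelled nicotinamide-competitive probe from 6.8 nM His-tagged NAMPT, detected with 1 nM Tb-anti-His; HEPES pH 7.5, 2% DMSO, 3 h room temperature. Em520/Em495 ratios normalized and fit four-parameter logistic for IC50.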
A general note: TR-FRET usually uses a lanthanide donor and a delayed reading to cut background.

Another experiment concerns the target NAMPT (Homo sapiens, UniProt P43490). In words: Time-Resolved Fluorescence Resonance Energy Transfer (TR-FRET) Binding Assay of NAMPT with PRPP. The settings on record: 200 μM PRPP and 2.5 mM ATP; 2 nM NAMPT, 2 nM probe, equilibrated 16 hours. A digest of the protocol: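 Binding was measured by TR-FRET with 2 nM NAMPT, 2 nM probe and 1 nM Tb-anti-His antibody in the presence of 200 μM PRPP and 2.5 mM ATP, with 2% DMSO. Equilibration lasted 16 h before reading, allowing possible enzymatic modification of compounds.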

Our source for the IC50 values is US9334264B2, “NAMPT inhibitors” (AbbVie Inc., priority 2012, dated 2016).

Some results are limits rather than exact numbers.

NAMPT, sequence (P43490 whole entry): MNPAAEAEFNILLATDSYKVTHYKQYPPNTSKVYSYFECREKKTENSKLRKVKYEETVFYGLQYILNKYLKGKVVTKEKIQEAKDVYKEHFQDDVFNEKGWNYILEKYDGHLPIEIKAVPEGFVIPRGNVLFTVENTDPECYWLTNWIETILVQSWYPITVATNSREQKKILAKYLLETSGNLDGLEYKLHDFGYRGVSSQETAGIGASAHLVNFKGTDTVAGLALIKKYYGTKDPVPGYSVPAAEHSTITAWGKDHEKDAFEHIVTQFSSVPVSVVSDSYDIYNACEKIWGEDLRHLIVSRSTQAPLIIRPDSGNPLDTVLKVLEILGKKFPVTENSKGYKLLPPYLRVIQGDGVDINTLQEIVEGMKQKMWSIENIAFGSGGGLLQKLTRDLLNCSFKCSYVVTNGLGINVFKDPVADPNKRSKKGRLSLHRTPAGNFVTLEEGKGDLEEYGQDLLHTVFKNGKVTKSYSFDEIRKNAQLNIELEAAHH
NAMPT (human, recombinant, C-terminally His-tagged), sequence (P43490 whole entry): as above

As for `CC(C)C(=O)NCCNC(=O)N(Cc1ccc(C#N)cc1)c1ncc(C(=O)NCCCn2ccnc2)s1` [Example 147, 2-[(4-cyanobenzyl)({2-[(2-methylpropanoyl)amino]ethyl}carbamoyl)amino]-N-[3-(1H-imidazol-1-yl)propyl]-1,3-thiazole-5-carboxamide], the values for the IC50 (in experiment [1]; on NAMPT) were > 10000 nM and 71.9 nM, respectively.
On to `C=C[C@H](CO)NC(=O)N(Cc1ccc(C#N)cc1)c1ncc(C(=O)NCCCn2ccnc2)s1` [Example 148, 2-[(4-cyanobenzyl){[(2R)-1-hydroxybut-3-en-2-yl]carbamoyl}amino]-N-[3-(1H-imidazol-1-yl)propyl]-1,3-thiazole-5-carboxamide], for which the IC50 (commonly the point on the concentration scale where inhibition reaches its midpoint) in experiment [1] was > 10000 nM; on NAMPT, 60.6 nM.
Take `N#Cc1ccc(CN(C(=O)NCCCN2CC(O)C2)c2ncc(C(=O)NCCCn3ccnc3)s2)cc1` [Example 149, 2-[(4-cyanobenzyl){[3-(3-hydroxyazetidin-1-yl)propyl]carbamoyl}amino]-N-[3-(1H-imidazol-1-yl)propyl]-1,3-thiazole-5-carboxamide]: the IC50 in experiment [1] is > 10000 nM; at NAMPT it was 94.2 nM.
For `COCCC(=O)N(CCC(C)C)c1ncc(C(=O)NCCCn2ccnc2)s1` [Example 150, N-[3-(1H-imidazol-1-yl)propyl]-2-[(3-methoxypropanoyl)(3-methylbutyl)amino]-1,3-thiazole-5-carboxamide] the same measures were 252 nM and 0.21 nM.
Consider `COCC(=O)N(CCC(C)C)c1ncc(C(=O)NCCCn2ccnc2)s1` [Example 151, N-[3-(1H-imidazol-1-yl)propyl]-2-[(methoxyacetyl)(3-methylbutyl)amino]-1,3-thiazole-5-carboxamide], for which the half-inhibitory concentration (IC50) in experiment [1] amounted to 219 nM; at NAMPT it was 0.412 nM.
The like results for `CC(C)CCN(C(=O)C1CC1)c1ncc(C(=O)NCCCn2ccnc2)s1` [Example 152, 2-[(cyclopropylcarbonyl)(3-methylbutyl)amino]-N-[3-(1H-imidazol-1-yl)propyl]-1,3-thiazole-5-carboxamide] were, in that order, 768 nM and 0.232 nM.
For `CC(=O)O[C@@H](C)C(=O)N(CCC(C)C)c1ncc(C(=O)NCCCn2ccnc2)s1` [Example 153, (2S)-1-[(5-{[3-(1H-imidazol-1-yl)propyl]carbamoyl}-1,3-thiazol-2-yl)(3-methylbutyl)amino]-1-oxopropan-2-yl acetate] the same measures were 1430 nM and 0.286 nM.
The like results for `CC(C)CCN(C(=O)CC1CCOCC1)c1ncc(C(=O)NCCCn2ccnc2)s1` [Example 154, N-[3-(1H-imidazol-1-yl)propyl]-2-[(3-methylbutyl)(tetrahydro-2H-pyran-4-ylacetyl)amino]-1,3-thiazole-5-carboxamide] were, in that order, 230 nM and 0.518 nM.
Turning to `CC(C)CCN(C(=O)C1CCOC1)c1ncc(C(=O)NCCCn2ccnc2)s1` (stereo not drawn) [Example 155, N-[3-(1H-imidazol-1-yl)propyl]-2-[(3-methylbutyl)(tetrahydrofuran-3-ylcarbonyl)amino]-1,3-thiazole-5-carboxamide], the IC50 amounted to 669 nM in experiment [1] and 0.254 nM on NAMPT.
Consider `CCOC(=O)CCNC(=O)N(Cc1ccc(C#N)cc1)c1ncc(C(=O)NCCCn2ccnc2)s1` [Example 159, ethyl N-[(4-cyanobenzyl)(5-{[3-(1H-imidazol-1-yl)propyl]carbamoyl}-1,3-thiazol-2-yl)carbamoyl]-beta-alaninate], for which the IC50 in experiment [1] is 8230 nM; at NAMPT it was 291 nM.
On to `CCOC(=O)CCCNC(=O)N(Cc1ccc(C#N)cc1)c1ncc(C(=O)NCCCn2ccnc2)s1` [Example 160, ethyl 4-{[(4-cyanobenzyl)(5-{[3-(1H-imidazol-1-yl)propyl]carbamoyl}-1,3-thiazol-2-yl)carbamoyl]amino}butanoate], for which the 50% inhibitory concentration (IC50) in experiment [1] is > 10000 nM; at NAMPT, 195 nM.
Turning to `CCOC(=O)CC(C)NC(=O)N(Cc1ccc(C#N)cc1)c1ncc(C(=O)NCCCn2ccnc2)s1` (stereo not drawn) [Example 161, ethyl 3-{[(4-cyanobenzyl)(5-{[3-(1H-imidazol-1-yl)propyl]carbamoyl}-1,3-thiazol-2-yl)carbamoyl]amino}butanoate], the concentration for half-maximal inhibition (IC50) in experiment [1] is > 10000 nM; at NAMPT it was 215 nM.
Take `CCOC(=O)CC(NC(=O)N(Cc1ccc(C#N)cc1)c1ncc(C(=O)NCCCn2ccnc2)s1)C(C)C` (stereo not drawn) [Example 162, ethyl 3-{[(4-cyanobenzyl)(5-{[3-(1H-imidazol-1-yl)propyl]carbamoyl}-1,3-thiazol-2-yl)carbamoyl]amino}-4-methylpentanoate]: the results for the concentration for half-maximal inhibition (IC50) (in experiment [1]; at NAMPT) were 3330 nM and 187 nM, respectively.
Take `CCOC(=O)C(C)(C)CNC(=O)N(Cc1ccc(C#N)cc1)c1ncc(C(=O)NCCCn2ccnc2)s1` [Example 163, ethyl 3-{[(4-cyanobenzyl)(5-{[3-(1H-imidazol-1-yl)propyl]carbamoyl}-1,3-thiazol-2-yl)carbamoyl]amino}-2,2-dimethylpropanoate]: the IC50 turned out to be 6800 nM in experiment [1] and 171 nM on NAMPT.
The like results for `N#Cc1ccc(CN(C(=O)NC2CC(C(=O)O)C2)c2ncc(C(=O)NCCCn3ccnc3)s2)cc1` (stereo not drawn) [Example 164, 3-{[(4-cyanobenzyl)(5-{[3-(1H-imidazol-1-yl)propyl]carbamoyl}-1,3-thiazol-2-yl)carbamoyl]amino}cyclobutanecarboxylic acid] were, in that order, > 10000 nM and 583 nM.
For `CCOC(=O)C(C)CNC(=O)N(Cc1ccc(C#N)cc1)c1ncc(C(=O)NCCCn2ccnc2)s1` (stereo not drawn) [Example 165, ethyl 3-{[(4-cyanobenzyl)(5-{[3-(1H-imidazol-1-yl)propyl]carbamoyl}-1,3-thiazol-2-yl)carbamoyl]amino}-2-methylpropanoate] the same measures were 340 nM and 99.1 nM.
For `COCCCNC(=O)N(Cc1ccc(C#N)cc1)c1ncc(C(=O)NCCCn2ccnc2)s1` [Example 166, 2-{(4-cyanobenzyl)[(3-methoxypropyl)carbamoyl]amino}-N-[3-(1H-imidazol-1-yl)propyl]-1,3-thiazole-5-carboxamide] the same measures were > 10000 nM and 630 nM.
As for `CC(C)C(CC(=O)O)NC(=O)N(Cc1ccc(C#N)cc1)c1ncc(C(=O)NCCCn2ccnc2)s1` (stereo not drawn) [Example 168, 3-{[(4-cyanobenzyl)(5-{[3-(1H-imidazol-1-yl)propyl]carbamoyl}-1,3-thiazol-2-yl)carbamoyl]amino}-4-methylpentanoic acid], the values for the IC50 (in experiment [1]; at NAMPT) were > 10000 nM and 1390 nM, respectively.
As to `CC(C)(CNC(=O)N(Cc1ccc(C#N)cc1)c1ncc(C(=O)NCCCn2ccnc2)s1)C(=O)O` [Example 169, 3-{[(4-cyanobenzyl)(5-{[3-(1H-imidazol-1-yl)propyl]carbamoyl}-1,3-thiazol-2-yl)carbamoyl]amino}-2,2-dimethylpropanoic acid], the IC50 was 8450 nM in experiment [1] and 266 nM on NAMPT.
The like results for `N#Cc1ccc(CN(C(=O)NCCC(=O)O)c2ncc(C(=O)NCCCn3ccnc3)s2)cc1` [Example 171, N-[(4-cyanobenzyl)(5-{[3-(1H-imidazol-1-yl)propyl]carbamoyl}-1,3-thiazol-2-yl)carbamoyl]-beta-alanine] were, in that order, 8790 nM and 32.1 nM.
As to `N#Cc1ccc(CN(C(=O)NCCCC(=O)O)c2ncc(C(=O)NCCCn3ccnc3)s2)cc1` [Example 172, 4-{[(4-cyanobenzyl)(5-{[3-(1H-imidazol-1-yl)propyl]carbamoyl}-1,3-thiazol-2-yl)carbamoyl]amino}butanoic acid], the IC50 in experiment [1] was > 10000 nM; at NAMPT, 153 nM.
For `CC(C)CCN(C(=O)CC1CCCO1)c1ncc(C(=O)NCCCn2ccnc2)s1` (stereo not drawn) [Example 173, N-[3-(1H-imidazol-1-yl)propyl]-2-[(3-methylbutyl)(tetrahydrofuran-2-ylacetyl)amino]-1,3-thiazole-5-carboxamide] the same measures were 707 nM and 2.33 nM.
Turning to `CC(C)CCN(C(=O)CC1CCOC1)c1ncc(C(=O)NCCCn2ccnc2)s1` (stereo not drawn) [Example 174, N-[3-(1H-imidazol-1-yl)propyl]-2-[(3-methylbutyl)(tetrahydrofuran-3-ylacetyl)amino]-1,3-thiazole-5-carboxamide], the 50% inhibitory concentration (IC50) in experiment [1] is 334 nM; on NAMPT, 0.714 nM.
The like results for `COCCC(=O)N(CCOC)c1ncc(C(=O)NCCCn2ccnc2)s1` [Example 175, N-[3-(1H-imidazol-1-yl)propyl]-2-[(2-methoxyethyl)(3-methoxypropanoyl)amino]-1,3-thiazole-5-carboxamide] were, in that order, 1150 nM and 0.6 nM.
As for `COCCCN(C(=O)CCOC)c1ncc(C(=O)NCCCn2ccnc2)s1` [Example 176, N-[3-(1H-imidazol-1-yl)propyl]-2-[(3-methoxypropanoyl)(3-methoxypropyl)amino]-1,3-thiazole-5-carboxamide], the 50% inhibitory concentration (IC50) in experiment [1] was 7360 nM; at NAMPT, 0.365 nM.
The like results for `COCCC(=O)N(CC1CCCCO1)c1ncc(C(=O)NCCCn2ccnc2)s1` (stereo not drawn) [Example 177, N-[3-(1H-imidazol-1-yl)propyl]-2-[(3-methoxypropanoyl)(tetrahydro-2H-pyran-2-ylmethyl)amino]-1,3-thiazole-5-carboxamide] were, in that order, 4620 nM and 0.653 nM.
The like results for `COCCC(=O)N(CC1CCCO1)c1ncc(C(=O)NCCCn2ccnc2)s1` (stereo not drawn) [Example 178, N-[3-(1H-imidazol-1-yl)propyl]-2-[(3-methoxypropanoyl)(tetrahydrofuran-2-ylmethyl)amino]-1,3-thiazole-5-carboxamide] were, in that order, 6970 nM and 0.813 nM.
